Data published in ChEMBL document CHEMBL1671859, “bla(IMP-4) in different genetic contexts in Enterobacteriaceae isolates from Australia” (2008).
Converted amounts (≈) assume the structure as drawn.

Legend:
Assay type in all cases: functional
[1] = test system: Escherichia coli; assay: Antibacterial activity against Escherichia coli isolate Ec9381 harboring IncL/M plasmid and blaIMP-4-qacG2-aacA4-catB3 array by Etest method
[2] = test system: Acinetobacter; assay: Antibacterial activity against Acinetobacter isolate A74510 harboring blaIMP-4-qacG2-aacA4-catB3 array by Etest method
[3] = test system: Morganella morganii; assay: Antibacterial activity against Morganella morganii isolate Mm1229 harboring IncL/M plasmid and blaIMP-4-qacG2-aacA4-catB3 array by Etest method
[4] = test system: Klebsiella oxytoca; assay: Antibacterial activity against Klebsiella oxytoca isolate Ko1156 harboring IncL/M plasmid and blaIMP-4-qacG2-aacA4-catB3 array by Etest method
[5] = test system: Serratia marcescens; assay: Antibacterial activity against Serratia marcescens isolate Sm211 harboring IncA/C plasmid and blaIMP-4-qacG2-aacA4-catB3 array by Etest method
[6] = test system: Escherichia coli; assay: Antibacterial activity against Escherichia coli isolate Ec221 harboring IncA/C plasmid and blaIMP-4-qacG2-aacA4-catB3 array by Etest method
[7] = test system: Citrobacter freundii; assay: Antibacterial activity against Citrobacter freundii isolate Cf1614 harboring IncL/M plasmid and blaIMP-4-qacG2-aacA4-catB3 array by Etest method
[8] = test system: Serratia marcescens; assay: Antibacterial activity against Serratia marcescens isolate Sm201 harboring IncA/C plasmid and blaIMP-4-qacG2-aacA4-catB3 array by Etest method
[9] = test system: Serratia marcescens; assay: Antibacterial activity against Serratia marcescens isolate Sm203 harboring IncA/C plasmid and blaIMP-4-qacG2-aacA4-catB3 array by Etest method
[10] = test system: Citrobacter amalonaticus; assay: Antibacterial activity against Citrobacter amalonaticus isolate Ca38009 harboring IncL/M plasmid and blaIMP-4-qacG2-aacA4-catB3 array by Etest method
[11] = test system: Serratia marcescens; assay: Antibacterial activity against Serratia marcescens isolate Sm265 harboring IncA/C plasmid and blaIMP-4-qacG2-aacA4-catB3 array by Etest method
[12] = test system: Citrobacter koseri; assay: Antibacterial activity against Citrobacter koseri isolate Ck211 harboring IncA/C plasmid and blaIMP-4-qacG2-aacA4-catB3 array by Etest method
[13] = test system: Acinetobacter baumannii; assay: Antibacterial activity against Acinetobacter baumannii isolate AbN450 harboring […]-qacG2-aacA4-catB3 array by Etest method
[14] = test system: Klebsiella oxytoca; assay: Antibacterial activity against Klebsiella oxytoca isolate Ko238 harboring IncA/C plasmid and blaIMP-4-qacG2-aacA4-catB3 array by Etest method
[15] = test system: Morganella morganii; assay: Antibacterial activity against Morganella morganii isolate Mm1614 harboring IncL/M plasmid and blaIMP-4-qacG2-aacA4-catB3 array by Etest method
[16] = test system: Escherichia coli; assay: Antibacterial activity against Escherichia coli isolate Ec211 harboring IncA/C plasmid and blaIMP-4-qacG2-aacA4-catB3 array by Etest method
[17] = test system: Citrobacter amalonaticus; assay: Antibacterial activity against Citrobacter amalonaticus isolate Ca1614 harboring IncL/M plasmid and blaIMP-4-qacG2-aacA4-catB3 array by Etest method
[18] = test system: Klebsiella oxytoca; assay: Antibacterial activity against Klebsiella oxytoca isolate Ko0426 harboring IncL/M plasmid and blaIMP-4-qacG2-aacA4-catB3 array by Etest method
[19] = test system: Serratia marcescens; assay: Antibacterial activity against Serratia marcescens isolate Sm2723 harboring IncL/M plasmid and blaIMP-4-qacG2-aacA4-catB3 array by Etest method
[20] = test system: Morganella morganii; assay: Antibacterial activity against Morganella morganii isolate Mm38009 harboring IncL/M plasmid and blaIMP-4-qacG2-aacA4-catB3 array by Etest method
[21] = test system: Escherichia coli; assay: Antibacterial activity against Escherichia coli isolate Ec158 harboring IncA/C plasmid and blaIMP-4-qacG2-aacA4-catB3 array by Etest method
[22] = test system: Citrobacter amalonaticus; assay: Antibacterial activity against Citrobacter amalonaticus isolate Ca3927 harboring IncL/M plasmid and blaIMP-4-qacG2-aacA4-catB3 array by Etest method
[23] = test system: Citrobacter youngae; assay: Antibacterial activity against Citrobacter youngae isolate CyB38 harboring blaIMP-4-qacG2-aacA4-catB3 array by Etest method
[24] = test system: Serratia marcescens; assay: Antibacterial activity against Serratia marcescens isolate Sm220 harboring IncA/C plasmid and blaIMP-4-qacG2-aacA4-catB3 array by Etest method
[25] = test system: Klebsiella pneumoniae; assay: Antibacterial activity against Klebsiella pneumoniae isolate Kp7564 harboring IncL/M plasmid and blaIMP-4-qacG2-aacA4-catB3 array by Etest method
[26] = test system: Klebsiella pneumoniae; assay: Antibacterial activity against Klebsiella pneumoniae isolate Kp4614
[27] = test system: Klebsiella pneumoniae; assay: Antibacterial activity against Klebsiella pneumoniae isolate Kp3799 harboring IncL/M plasmid and blaIMP-4-qacG2-aacA4-catB3 array by Etest method
[28] = test system: Klebsiella pneumoniae; assay: Antibacterial activity against Klebsiella pneumoniae isolate Kp2730 harboring IncL/M plasmid and blaIMP-4-qacG2-aacA4-catB3 and dfrA12-orfF-aadA2 arrays by Etest method
[29] = test system: Klebsiella pneumoniae; assay: Antibacterial activity against Klebsiella pneumoniae isolate Kp211 harboring IncA/C plasmid and blaIMP-4-qacG2-aacA4-catB3 array by Etest method
[30] = test system: Klebsiella pneumoniae; assay: Antibacterial activity against Klebsiella pneumoniae isolate Kp1945 harboring IncL/M plasmid and blaIMP-4-qacG2-aacA4-catB3 and dfrA12-orfF-aadA2 arrays by Etest method
[31] = test system: Klebsiella pneumoniae; assay: Antibacterial activity against Klebsiella pneumoniae isolate Kp266 harboring IncA/C plasmid and blaIMP-4-qacG2-aacA4-catB3 array by Etest method
[32] = test system: Klebsiella pneumoniae; assay: Antibacterial activity against Klebsiella pneumoniae isolate Kp38045 harboring IncL/M plasmid and blaIMP-4-qacG2-aacA4-catB3 array by Etest method
[33] = test system: Klebsiella pneumoniae; assay: Antibacterial activity against Klebsiella pneumoniae isolate Kp149 harboring IncA/C plasmid and blaIMP-4-qacG2-aacA4-catB3 array by Etest method
[34] = test system: Klebsiella pneumoniae; assay: Antibacterial activity against Klebsiella pneumoniae isolate Kp1239 harboring IncL/M plasmid and blaIMP-4-qacG2-aacA4-catB3 array by Etest method
[35] = test system: Klebsiella pneumoniae; assay: Antibacterial activity against Klebsiella pneumoniae isolate Kp38009 harboring IncL/M plasmid and blaIMP-4-qacG2-aacA4-catB3 array by Etest method
[36] = test system: Klebsiella pneumoniae; assay: Antibacterial activity against Klebsiella pneumoniae isolate Kp204 harboring IncA/C plasmid and blaIMP-4-qacG2-aacA4-catB3 array by Etest method

| SMILES | MIC [1] | MIC [2] | MIC [3] | MIC [4] | MIC [5] | MIC [6] | MIC [7] | MIC [8] | MIC [9] | MIC [10] | MIC [11] | MIC [12] | MIC [13] | MIC [14] | MIC [15] | MIC [16] | MIC [17] | MIC [18] | MIC [19] | MIC [20] | further results |
| --- | --- | --- | --- | --- | --- | --- | --- | --- | --- | --- | --- | --- | --- | --- | --- | --- | --- | --- | --- | --- | --- |
| O=C(O)c1cn(C2CC2)c2cc(N3CCNCC3)c(F)cc2c1=O [CIPROFLOXACIN] | ≤ 0.5 µg/mL | > 2 µg/mL | ≤ 0.5 µg/mL | ≤ 0.5 µg/mL | 2 µg/mL (≈ 6.04 µM) | ≤ 0.5 µg/mL | ≤ 0.5 µg/mL | > 2 µg/mL | 2 µg/mL (≈ 6.04 µM) | ≤ 0.5 µg/mL | ≤ 0.5 µg/mL | ≤ 0.5 µg/mL | > 2 µg/mL | ≤ 0.5 µg/mL | ≤ 0.5 µg/mL | ≤ 0.5 µg/mL | ≤ 0.5 µg/mL | ≤ 0.5 µg/mL | > 2 µg/mL | ≤ 0.5 µg/mL | MIC [21]: ≤ 0.5 µg/mL; MIC [22]: ≤ 0.5 µg/mL; MIC [23]: > 2 µg/mL; MIC [24]: 2 µg/mL (≈ 6.04 µM) |
| C[C@H]1[C@H](NC(=O)/C(=N\OC(C)(C)C(=O)O)c2csc(N)n2)C(=O)N1S(=O)(=O)O [AZTREONAM] | ≤ 1 µg/mL | > 16 µg/mL | ≤ 1 µg/mL | ≤ 1 µg/mL | ≤ 1 µg/mL | ≤ 1 µg/mL | > 16 µg/mL | ≤ 1 µg/mL | ≤ 1 µg/mL | ≤ 1 µg/mL | ≤ 1 µg/mL | ≤ 1 µg/mL | > 16 µg/mL | ≤ 1 µg/mL | 4 µg/mL (≈ 9.19 µM) | ≤ 1 µg/mL | > 16 µg/mL | ≤ 1 µg/mL | ≤ 1 µg/mL | ≤ 1 µg/mL | MIC [25]: ≤ 1 µg/mL; MIC [26]: ≤ 1 µg/mL; MIC [27]: ≤ 1 µg/mL; MIC [28]: ≤ 1 µg/mL; MIC [29]: ≤ 1 µg/mL; MIC [30]: ≤ 1 µg/mL; MIC [31]: ≤ 1 µg/mL; MIC [32]: ≤ 1 µg/mL; MIC [33]: > 16 µg/mL; MIC [34]: ≤ 1 µg/mL; MIC [21]: ≤ 1 µg/mL; MIC [22]: > 16 µg/mL; MIC [35]: ≤ 1 µg/mL; MIC [36]: ≤ 1 µg/mL; MIC [23]: ≤ 1 µg/mL; MIC [24]: ≤ 1 µg/mL |
